Results published in PMC10877577 (ACS Chemical Biology, 2024).
Entries after “also recorded” stand apart in the source; their conditions may differ. Like-named read-outs stand apart in the source and are kept apart here.

Legend:
[1] = test system: MinoUniCAR-transduced PBMCs; experiment: MinoUniCAR IFN-γ release with EGFR-peptide adaptor; type: cell-based, human; conditions: 10 vs 0 μM minocycline
Method: (§1) IFN-γ, IL2, and IL12 secretion was measured by collecting the supernatant from the respective cell-based assay and frozen at −20 °C prior to analysis by ELISA. IFN-γ, IL2, and IL12 ELISAs were carried out using the Human IFN-γ ELISA MAX Deluxe kit, Human IL2 ELISA MAX Deluxe kit, and Human IL12 (p70) ELISA MAX Deluxe kit in accordance with the manufacturer’s instructions (BioLegend).
Transduced PBMCs were stained using RQR8 expression and V5 markers. Cells were then normalized to 50% efficiency by diluting with nontransduced T cells. The tumor-targeting adaptor protein (EGFR sdAb) fused to the GWARA peptide was separately expressed by CHO cell transient transfection and purified by His-tag chromatography. […] IFN-γ secretion was measured as described above.

[2] = test system: GWARA-flexi-IL12 secretion from transduced PBMCs; experiment: IL12 secretion assay (KDEL retention system); type: cell-based, human; conditions: minocycline up to 2.5 μM
Method: as §1
Transduced PBMCs were stained for the independent HA expression marker by using an anti-HA-PE antibody to determine transduction efficiency. Cells were normalized to 60% using nontransduced T cells prior to assay set up. For the assay set up, 0.5 × 10^4 transduced cells were cultured in RPMI (RPMI-1640) supplemented with 10% fetal bovine serum (FBS), 2 mM GlutaMAX, and IL2 at a concentration of 100 UI/mL. […] IL12 ELISA was carried out following manufacturer’s instructions (BioLegend, 431704).

[3] = test system: SupT1 GWARA-CD8stk-CD28TM and SupT1 aMinoC1-CD8stk-CD28TM cells; experiment: Cell–cell binding assay (aggregate formation); type: cell-based, human; conditions: 10 μM minocycline, 24 h time course
Method: SupT1 cells were transduced to express GWARA-CD8a spacer-CD28TM-2A-mCherry and aMinoC1 sdAb-CD8 spacer-CD28TM-2A-eGFP. 0.5 × 10^4 cells were cocultured in RPMI (RPMI-1640) supplemented with 10% fetal bovine serum (FBS) and 2 mM GlutaMAX. […] Images were captured using an IncuCyte real-time imager. Time-course images were analyzed using ImageJ (NIH v1.53t) using an image analyzer (20 px^2-infinite size, 0.0–1.0 circularity).

Nalm6 EGFR+ tumor = experiment: Xenograft model with NALM6, BLI readout; type: in vivo, NSG mice; conditions: minocycline hydrochloride 0.4 mg i.p. every 2–3 days; day 7 to 13 post CAR-T
Method: All animal studies were carried out in accordance with a UK Home Office-approved project license and were approved by the UCL Biological Services Ethical Review Committee. NSG mice (female, aged 6–10 weeks) were acquired from Charles River Laboratories and raised under pathogen-free conditions. On day 4, 0.5 × 10^6 Nalm6 cells engineered to express EGFR and HA-luciferase were injected intravenously into NSG mice. Tumor engraftment was assessed through bioluminescence imaging, employing the IVIS Spectrum system (PerkinElmer) following intraperitoneal injection of 2 mg D-luciferin. Photon emission from EGFR^+ NALM6-FLuc cells, expressed in photon per second per cm^2 per steradian, was quantified using Living Image software (PerkinElmer). On day 0, mice were randomly assigned to different cohorts prior to intravenous injection of 1 × 10^6 CAR T cells. The experiment was conducted without blinding; however, the use of bioluminescence imaging provides an objective assessment of tumor growth in this model. […] Intraperitoneal injection of 100 μL (0.4 mg) was administered every 2–3 days.

aMinoC1-peptide complex = experiment: SPR rechallenge: small-molecule-driven dissociation of peptide-Fc from immobilized aMinoC1; type: binding; conditions: peptide-Fc 100 nM, small molecule 1 μM
Method: Binding assays were carried out using 1x HBS-EP+ running buffer. Various concentrations (2.5 μM with 2-fold serial dilutions) of the analyte were injected for 150 s at 30 μL/min with 150 s dissociation time. Glycine-HCl (pH 2.0) was used as the regeneration buffer for the sensor chips. For the rechallenge experiment, aMinoC1 was immobilized on a CM5 sensor chip and CX7C peptide-Fc conjugates were loaded at 100 nM and injected as the analyte for 150 s at 30 μL/min. Following the injection of peptide-Fc, a small molecule at 1 μM was injected for 300 s at 30 μL/min, using dual injection function on a Biacore 8k instrument, to dissociate the peptide-Fc from the aMinoC1-peptide complex. The system was then washed using HBS-P^+ buffer for 300 s at 30 μL/min prior to rechallenge with peptide-Fc. The cycle was repeated three times following a final dissociation step of 300 s. For the alanine scanning experiments, the anti-minocycline antibody (sdAb-muIgG2a-Fc fusion) was captured on a Protein A series S sensor chip, to a density of 3000 RU. […] Glycine-HCl (pH 1.5) was used as the regeneration buffer. In each case, flow cell 1 was used for reference subtraction, and a “0 concentration” sensogram of buffer alone was used as a double reference subtraction to factor for drift. Data analysis was carried out using Biacore T200 Evaluation Software, version 3.0, and Biacore Insight evaluation software. The 1:1 Langmuir binding model was used to calculate the association (ka), dissociation (kd) rate constants, and equilibrium dissociation constant (KD).

[4] = test system: MyD88/CD40 signaling in transduced PBMCs; experiment: IFN-γ secretion of PBMCs with aMinoC1/GWARA-MyD88/CD40 module; type: cell-based, human; conditions: increasing concentrations of minocycline
Method: as §1

[5] = test system: MinoCAR-transduced PBMC against SKOV3 EGFR+ target cells; experiment: Tunability and reversibility assays (Incucyte kinetics of cytotoxicity); type: cell-based, human; conditions: minocycline 0 to 10 μM, 1:2 E/T
Method: EGFR+ SKOV3-mKate cells were seeded at 1.0 × 10^4 cells per well in a TC-treated flat-bottomed 96-well plate. For reversibility experiments, MinoCAR ON–OFF kinetics were tested by preactivating CAR T cells by incubating cells for 2 h on plates precoated with recombinant EGFR (10 μg/mL). CAR T cells were washed using 15 mL of PBS prior to coculture. […] Cells were then washed using 15 mL of PBS prior to coculture. Untreated CAR T cells were used as a control and were directly preceded to coculturing set. […] The Incucyte ZOOM Live-Cell Analysis System was used to carry out image capture at a rate of one image every 1 h for 150 h. […] The image capture rate of each condition was set at 1 image per hour for 72 h.

aMinoC1 sdAb = experiment: ELISA of CX7C-muIgG2a-Fc peptide fusions on aMinoC1 with or without minocycline; type: binding, alpaca; conditions: 1 μM minocycline
[6] = test system: MinoCAR-transduced PBMC against SupT1-EGFR+ target cells; type: cell-based; conditions: compared to 0 μM minocycline
Method: Transduced CAR T cells were determined by staining for the transduction marker RQR8 and normalized by the addition of nontransduced T cells. Effector cells were cocultured with 5.0 × 10^4 number of target cells (SupT1-NT, SupT1-EGFR+, SKOV3-mKate) to achieve the desired effector cell to target ratio. […] Cocultures were incubated for 24–72 h at 37 °C and 5% CO2. After incubation, plates were centrifuged at 400g for 5 min, and the supernatant containing secreted cytokines was collected for cytokine analysis. Cells were stained with anti-hCD34-APC and anti-CD3-PeCy7 to differentiate effector T cells and target cells. Cells were washed with 300 μL o PBS and stained with SYTOX Blue Dead Cell Stain dye. The percentage of target cell survival was measured relative to the number of live target cells cocultured with nonspecific CAR T cells or nontransduced PBMCs.

CN(C)c1ccc(O)c2c1C[C@H]1C[C@H]3[C@H](N(C)C)C(O)=C(C(N)=O)C(=O)[C@@]3(O)C(O)=C1C2=O [minocycline]
cytokine (IFN-γ) reduction [1]: 10 fold
IL12 release ([2]; day 2, aMinoC1-KDEL construct): up to 150 pg/mL
IL12 release ([2]; day 7, aMinoC1-KDEL construct): ≤ 2.2 µg/mL
cell aggregate formation [3]: random distribution of cells without a clear spatial organization
effect of minocycline on MinoCAR efficacy (BLI) (Nalm6 EGFR+ tumor): Significant inhibition of MinoCAR; also recorded: significantly reduced MinoCAR efficacy
GWARA-Fc dissociation from immobilized aMinoC1 on small-molecule injection (aMinoC1-peptide complex): acceleration of GWARA-Fc dissociation; also recorded: specifically reversed
peptide-Fc (HWAQA, PWAYS and QWAMM) dissociation from immobilised aMinoC1 on small-molecule injection (aMinoC1-peptide complex): acceleration
decrease of IFN-γ secretion [4]: 2 fold
SKOV3 target cell killing kinetics [5]: dose-dependent decrease in SKOV3 target cell killing
ELISA detection of peptide-Fc on aMinoC1 in presence of minocycline (aMinoC1 sdAb): out-competed peptide-Fc conjugates
increase in target cell survival ([6]; 24 h): 2.5 fold
increase in target cell survival ([6]; 72 h): 35 fold
